SMILES strings stand for the structures. Read-outs that look alike come from different tables or passages of the source.

This is an account of results in patent publication US20120114823A1, “Feed Additive For Improved Pigment Retention” (TROUW INTERNATIONAL B.V., priority 2009, published 2012).

The test system of series [1] is rainbow trout. Particulars: oral via feed; cited from earlier work.
Series [2] has as its system rainbow trout. Conditions: rainbow trout fed two months; feed with 80 ppm astaxanthin, alone or with 160 ppm proantocyanidin (0.1% KPA-F); cited from earlier work.
The subject of series [3] is salmon (S. salar). The series is described as follows: Feeding test with ferulic acid in astaxanthin feed, retention of astaxanthin in fish muscle (Example 2). Type of series: in vivo, Salmo salar. The protocol: The test was carried out with salmon (S. salar) from May 4th to August 20th. The test was carried out in vessels having a diameter of 1 metre. The vessels were filled with seawater and the water temperature varied between 8.3 and 11.8° C. in the period. There were 30 fish in each vessel having a mean weight of 0.2 kg at the start. The control group consisted of two vessels per diet, while the test group consisted of one vessel at medium inclusion of ferulic acid and two vessels per diet at low inclusion of ferulic acid.
The feed had the following main component composition: 44.5% protein; 28.2% fat; 7.6% water and 7.2% ash.
The test feed had the same composition as shown in table 2 and had in addition added ferulic acid as dry powder in meal mix before extrusion. Ferulic acid was added at two levels: low and medium, where the levels are defined as in example 1.
Each feed was formulated with two levels of astaxanthin, 20 and 40 mg/kg.
At the termination of the test the fish weighed 0.7 kg as an average. […] The fish were filleted and the fillet analysed for astaxanthin. Thirty fish per vessel were analysed individually with NIR.

A further series deals with sea bream. Particulars: cited from earlier work.
The test system of series [4] is salmon (S. salar). The series is described as follows: Feeding test with gallic acid in astaxanthin feed, retention of astaxanthin in fish muscle (Example 1). Type of series: in vivo, Salmo salar. Conditions: for retention of astaxanthin in fish muscle: 5.5 months. As to the method: The test was carried out on salmon (S. salar) over a 5.5-month period between November 11 and May 5. The test was carried out in vessels having a diameter of 1 metre. The vessels were filled with seawater and the water temperature varied between 8 and 12° C. in the period. There were 34-35 fish in each vessel. Mean weight at start was 118 g. The control group consisted of three vessels, while each test group consisted of one vessel.
The feeds had the following main component composition: 43.5% protein; 27.7% fat; 7.8% water and 8.0% ash.
There was produced feed having three different levels of astaxanthin, 15, 30 and 45 mg astaxanthin/kg respectively, both of the control feeds and the test feeds, by that different amounts of Carophyll Pink were added to the meal mixture before extrusion.
Adding gallic acid into the meal mix to the same recipe as the control feeds provided the test feeds. Gallic acid was added in four levels to the test feeds, low, medium, high and very high, respectively. Low level corresponds to an inclusion level of between 10 and 75 ppm, represented in the examples with an inclusion level of 15 ppm, medium level corresponds to an inclusion level of between 76 and 750 ppm, represented in the examples with an inclusion level of 400 ppm, high level corresponds to an inclusion level of between 751 and 1500 ppm, represented in the example with an inclusion level of 1200 ppm, and very high level corresponds to an inclusion level of over 1500 ppm, represented in the example with an inclusion level of 3600 ppm.
At the termination of the test the fish weighed in average 557 g. SGR was between 0.84%/d and 0.89%/d. The fish were filleted and the fillets were analysed for chemical astaxanthin in duplicates of pooled samples of fillets. Astaxanthin was analysed with HPLC according to a method developed by Roche with modifications.

As to `CC1=C(/C=C/C(C)=C/C=C/C(C)=C/C=C/C=C(C)/C=C/C=C(C)/C=C/C2=C(C)C(=O)C(O)CC2(C)C)C(C)(C)CC(O)C1=O` (stereo not drawn) [astaxanthin, 3,3′-dihydroxy β,β-carotene-4,4′-dion], in the series with rainbow trout [1], the “share of added astaxanthin in the feed deposited in the fish meat” value was “up to 15%”. In the series on rainbow trout [2], the “chemical content of astaxanthin in the muscle at the end of the experiment” value is on record as 6.57 ppm.

With `COc1cc(C=CC(=O)O)ccc1O` [ferulic acid, 3-(4-hydroxy-3-metoxyphenol)prop-2-enoic acid], the “effect on the retention of astaxanthin” value is given as “favourable effect on the retention of astaxanthin” with salmon (S. salar) [3] (low level of ferulic acid (15 ppm), feed contained less than 20 ppm of astaxanthin) and “favourable effect on the retention of astaxanthin” in the series with salmon (S. salar) [3] (medium level of ferulic acid (400 ppm), feed contained more than 30 ppm of astaxanthin). Besides, the “increase in the level of astaxanthin in fish skin” value is listed as “mild increase” with sea bream (1000 ppm ferulic acid) and “no increase” with sea bream (only 100 ppm ferulic acid).

Turning to `O=C(O)c1cc(O)c(O)c(O)c1` [gallic acid, 3,4,5-hydroxybenzoic acid], in the series on salmon (S. salar) [4] (astaxanthin content in the feeds approx. 40 ppm), the “retention of astaxanthin versus control” value is given as “little difference in the retention”. The “retention of astaxanthin in fish muscle” value is reported as “hamper the retention of astaxanthin” in the series with salmon (S. salar) [4] (high inclusion levels of gallic acid in feed (751-1500 ppm, represented by 1200 ppm)) and “worse retention than at the other tested levels” with salmon (S. salar) [4] (very high level of gallic acid in feed (over 1500 ppm, represented by 3600 ppm)). In addition, the “effect on the retention of astaxanthin” value with salmon (S. salar) [4] (lowest inclusion level of gallic acid (15 ppm) compared with medium level (400 ppm)) is given as “equally good effect on the retention of astaxanthin as a medium level”.
